Where two headings read alike, the source gives them in different places.
Tests used:
[1] = Non-specific binding in S9 fractions of mouse liver, kidney and pancreas homogenates, rapid equilibrium dialysis; type: in vitro ADME; details: for fraction unbound at 4 h, 50 μM: pH 7.4, 37 °C, mean ± SD (n = 3)
Description: The unbound fractions of FA, D1, and D2 were determined in the S9 subcellular fractions of the mouse liver, kidneys, and pancreas using rapid equilibrium dialysis (RED) plates (Thermo Fisher Scientific, Inc., Waltham, MA, USA). Briefly, the studied compounds were spiked at a 50 μM concentration into 100 μL of mouse homogenate S9 subcellular fraction and transferred to the reaction chamber. Homogenate dilutions were 1:4 (w/v) for the liver and kidney, and 1:20 (w/v) for the pancreas. A total of 350 μL of TBS (pH 7.4) buffer was added to the buffer chamber of the RED plate. The dialysis plate was incubated at 37 °C with shaking for 4 h. Samples of 50 μL were collected from both the reaction and buffer chambers, and equal amounts of buffer and S9 fraction were added to the collected samples, respectively, to yield identical sample matrices. The proteins were precipitated by diluting samples with 100 μL of ice-cold acetonitrile. Samples were centrifuged at 12 000 × g for 10 min, and the supernatants were collected for HPLC analysis.
The unbound fraction (fu,tissue) of the FA and its derivatives was calculated using eq 1 [drawing 1] 1 where D is the dilution factor of studied tissue homogenate, and fu,homogenate is the distribution ratio of the studied compound measured in the reaction and buffer chambers within the equilibrium dialysis assay.[29]

[2] = In vivo pharmacokinetics in mouse pancreas, liver and kidney after i.p. bolus; details: 25 μmol/kg i.p.; for Kp / half-life / Kp,uu (unbound tissue-to-plasma AUC ratio) / Tmax: mouse, ip, 25 umol/kg; for Kp: tissue/plasma partition coefficient (eq 2); for half-life: elimination half-life
Description: The pharmacokinetic study of FA, D1, and D2 was performed as previously described,[17] in which the pharmacokinetic parameters for the plasma and brain have been reported. Briefly, the studied compounds were dissolved in a vehicle containing 0.9% (w/v) NaCl in water, and a dose of 25 μmol/kg of the FA, D1, or D2 (n = 3 per compound at each time point) was administered as a bolus intraperitoneal (i.p.) injection for mice. The mice were anesthetized using a mixture of ketamine (140 mg/kg) and xylazine (8 mg/kg) and sacrificed by decapitation at selected time points between 10 and 360 min. The kidney, liver, and pancreas were rapidly collected, snap-frozen on dry ice, and stored at −80 °C until analyzed.
The frozen tissues were weighed and homogenized with ultrapure water (1:3 w/v) by sonicating twice for 5 s with the SoniPrep 150 Plus disintegrator (MSE Ltd., London, UK). The proteins were precipitated by diluting homogenate 1:3 (v/v) with acetonitrile containing the internal standards—chlorzoxazone for FA and diclofenac for derivatives. Samples were then centrifuged at 14 000 × g for 10 min at 4 °C. Supernatants were collected and diluted further 1:1 with ultrapure water and transferred into HPLC vials for the analysis by liquid chromatography-tandem mass spectrometry (LC–MS/MS).
Drug concentrations were analyzed using the LC–MS/MS method described previously,[17] with minor changes. Briefly, the analysis was carried out with an Agilent 1200 Series Rapid Resolution LC System with an Agilent Zorbax XBD-C18 rapid resolution high-throughput (RRHT) column (50 mm × 4.6 mm, 1.8 μm) and an Agilent 6410 triple quadrupole mass spectrometer equipped with an electrospray ionization source (Agilent Technologies, Palo Alto, CA, USA). The LC eluents were water (eluent A) and acetonitrile (eluent B), both containing 0.1% (v/v) formic acid. FA was separated with the following gradient: 0–1 min: 5% B, 1–2 min: 5% B → 90%, 2–4 min: 90% B, 4–4.1 min: 90% B → 5%, and 4.1–7 min: 5% B. For the derivatives, the gradient was as follows: 0–1 min: 10% B, 1–2 min: 10% B → 90%, 2–5 min: 90% B, 5–5.1 min: 90% B → 10%, and 5.1–8 min: 10% B. In both methods, the LC flow rate was 0.3 mL/min, the column temperature was set to 40 °C, and the sample injection volume was 5 μL.
The LC–MS/MS data acquisition for the FA was performed in a negative ion mode with the following conditions: drying gas flow 6.5 l/min with the temperature of 300 °C, nebulizer gas pressure of 20 psi, and capillary voltage of 4 000 V. MRM transitions were 193 → 149 for FA and 168 → 132 for chlorzoxazone. Fragmentor voltages were 100 and 120 V, respectively, and the collision energy was 20 V for both. For D1 and D2, the analysis was performed in a positive ion mode with the following conditions: drying gas flow of 6.5 l/min with the temperature of 300 °C, nebulizer gas pressure of 20 psi, and capillary voltage of 3 000 V. MRM transitions were 371 → 176.8 for D1, 357 → 310.9 for D2, and 296 → 250 for the diclofenac. The fragmentor voltages were 60, 40, and 100 V, and the collision energies were 16, 8, and 10 V, respectively. The data acquisition software was Agilent MassHunter Workstation software (version B.03.01), whereas Quantitative Analysis (B.09.00) software was used for data processing and analysis. The lower limit of quantification for the FA was 0.05 nmol/g and was 0.01 nmol/g for derivatives. The methods were linear, selective, accurate, and precise in the calibration range of 0.05–300 nmol/g for FA and 0.01–300 nmol/g for derivatives.
The time–concentration profiles for studied drugs were calculated using GraphPad Prism v. 5.03 software (GraphPad Software, San Diego, CA, USA). The area under curve (AUC) was calculated using the linear trapezoidal method, providing simultaneously the numeric pharmacokinetic parameters, such as tmax and Cmax. The half-life of elimination (t1/2β) was calculated from a logarithmic slope based on at least the last three detected timepoints. […]

[3] = mice, cited from earlier work
[4] = FA released from the dosed derivative, 25 μmol/kg i.p.

With COc1cc(/C=C/C(=O)Nc2cccc(C[C@H](N)C(=O)O)c2)ccc1O [derivative 2] the fraction unbound at 4 h, 50 μM ([1]; S9 subcellular fraction of kidney homogenate, mouse kidney S9, 50 μM, read-out: fu, kidney (%)) was 0.305 ± 0.0063, the fraction unbound at 4 h, 50 μM ([1]; S9 subcellular fraction of liver homogenate, mouse liver S9, 50 μM, read-out: fu, liver (%)) was 0.236 ± 0.0109 and the fraction unbound at 4 h, 50 μM ([1]; S9 subcellular fraction of pancreas homogenate, mouse pancreas S9, 50 μM, read-out: fu, pancreas (%)) was 0.15 ± 0.0206. The “unbound (free) portion, range over liver, kidney and pancreas” value ([1]; range over the studied mouse tissues) was 15.01–30.52%, the Cmax kidney ([2]; mice) was 196 nmol/g and the Cmax liver ([2]; mice) was 66.4 nmol/g. The Cmax pancreas ([2]; mice) was 253 nmol/g, the AUCtotal kidney ([2]; mice, n = 3) was 3 368 nmol/g × min and the AUCtotal liver ([2]; mice, n = 3) was 2 100 nmol/g × min. The AUCtotal pancreas ([2]; mice, n = 3) was 8 172 nmol/g × min, the “pancreas AUC, times higher in comparison to the original FA” value ([2]; mouse pancreas) was 203.8 times and the Kp ([2]; kidney, mice, read-out: Kp, kidney) was 7.27. For the same compound, the half-life ([2]; kidney, mice, read-out: t1/2β, kidney) was 8 min, the Kp,uu (unbound tissue-to-plasma AUC ratio) ([2]; kidney, mice, read-out: AUCu, kidney/AUCu plasma) was 25.7 and the Tmax ([2]; kidney, mice, read-out: tmax kidney (converted)) was 10 min. The Kp ([2]; liver, mice, read-out: Kp, liver) was 4.54, the half-life ([2]; liver, mice, read-out: t1/2β, liver) was 13.1 min and the Kp,uu (unbound tissue-to-plasma AUC ratio) ([2]; liver, mice, read-out: AUCu, liver/AUCu plasma) was 12.4. It also gave a Tmax ([2]; liver, mice, read-out: tmax liver (converted)) of 10 min, a Kp ([2]; pancreas, mice, read-out: Kp, pancreas) of 17.6 and a half-life ([2]; pancreas, mice, read-out: t1/2β, pancreas) of 33.8 min. The Kp,uu (unbound tissue-to-plasma AUC ratio) ([2]; pancreas, mice, read-out: AUCu, pancreas/AUCu plasma) was 30.6, the Tmax ([2]; pancreas, mice, read-out: tmax pancreas (converted)) was 30 min and the “AUCu, kidney” value ([2]; unbound (eq 3), mice) was 1 028 nmol/g × min. The “AUCu, liver” value ([2]; unbound (eq 3), mice) was 496 nmol·min/g, the “AUCu, pancreas” value ([2]; unbound (eq 3), mice) was 1 226 nmol/g × min and the “Cmax, u kidney” value ([2]; unbound, mice) was 59.8 nmol/g. For the same compound, the “Cmax, u liver” value ([2]; unbound, mice) was 15.7 nmol/g, the “Cmax, u pancreas” value ([2]; unbound, mice) was 38.0 nmol/g and the “AUCtotal plasma of released FA” value [3, 4] was 75 nmol·min/mL. For the same compound, the “AUCu, plasma of released FA” value [3, 4] was 8 nmol·min/mL, the “Cmax, u plasma of released FA” value [3, 4] was 0.2 µM and the AUCtotal plasma ([3]; 25 μmol/kg i.p. bolus) was 463 nmol·min/mL. For the same compound, the tmax plasma ([3]; 25 μmol/kg i.p.) was 10 (released 10) min, the Cmax ([3]; read-out: Cmax plasma, 25 μmol/kg i.p.) was 21.1 µM and the “AUCu, plasma” value ([3]; unbound, 25 μmol/kg i.p.) was 40 nmol·min/mL. The “Cmax, u plasma” value ([3]; unbound, 25 μmol/kg i.p.) was 1.8 µM.

Reference: publication PMC9644403, “L-type Amino Acid Transporter 1 Utilizing Ferulic Acid Derivatives Show Increased Drug Delivery in the Mouse Pancreas Along with Decreased Lipid Peroxidation and Prostaglandin Production” (Molecular Pharmaceutics, 2022)
